For data set [1] the following is noted: mice; IP, IV or oral routes; cited from earlier work.
The conditions of data set [2]: mice and rats, concentrations well above those required to stimulate hippocampal neurogenesis; cited from earlier work.
Data set [3] relates to hippocampal neurogenesis (Dentate Gyrus). Conditions: cited from earlier work.
Another data set has as its system aged Fisher rats. The note with it: cited from earlier work.
Another data set has as its target T1, p70 (NAMPT) (Homo sapiens, UniProt P43490).
T1 construct: endogenous in cells; host or cells: H2122 lung cancer cells
Briefly: binding competition for photo-crosslinking of P7C3-S326 to p70 in H2122 cells. Conditions: 0.3 μM P7C3-S326 plus 5 μM competitor, p70 band intensity, P7C3-S326 alone compared with plus competitor, vehicle 1.0. The method, boiled down:
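H2122 cells were co-treated with 0.3 μM P7C3-S326 and 5 uM competing P7C3 analogs for 2 hours at 37° C, then UV-crosslinked at 306 nm for 15 minutes. Lysates were clicked to a fluorescent dye and run on SDS-PAGE. The p70 band was quantified relative to the DMSO control.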

Data set [4] concerns hippocampal neurogenesis (Dentate Gyrus). Briefly: in vivo neurogenesis assay (BrdU+ cells in dentate gyrus). Further details: species or system mice. The note with it: for Neurogenesis # BrdU+ Cells (X10E06)/mm3 Dentate Gyrus: living mice, vehicle (DMSO) 7.3. In a few lines: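 Pools of ten compounds infused into the left ventricle of two adult mice per pool via cannula and mini-pump over one week, aimed at mid-nanomolar levels. Daily BrdU co-injected; brain sections stained for BrdU to count new dentate gyrus cells.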

For data set [5], the system named is NAD levels in doxorubicin-treated U2OS cells. The experiment in a line: NAD rebound assay in doxorubicin-treated cells (NAD/NADH Glo). The format is cell-based. The note with it: 0.5 μM doxorubicin 45 h. How it is done:
FIG. 12. Five-point dose response curves (DRC) of all tested compounds in NAD rebound assay. […] Cellular NAD abundance was determined by NAD/NADH Glo assay kit.
Each chemical variant of P7C3 was co-incubated with doxorubicin on cultured U2OS cells at five doses (0.03 uM, 0.1 uM, 0.3 uM, 1 uM and 3 uM). After 45 hrs incubation, cells were assayed for intracellular levels of NAD (FIG. 12).
Assay was performed following the manufacturer's protocol. NAD/NADH-Glo reagent contains the NAD Cycling Enzyme that converts NAD+ to NADH. In the presence of NADH, the enzyme reductase reduces a proluciferin reductase substrate to form luciferin. Cells were grown in 96- or 384-well plates. 50 μl or 15 μl of NAD/NADH-Glo™ Detection Reagent were added to each well. The resulting luminescence signals were measured by Tecan plate reader or EnVison multimode plate reader (Perkin Elmer).

For data set [6], the system named is neurons in living animals. Conditions: neurogenesis, MPTP model, concussive blast injury; cited from earlier work.
In a further data set the target is T2, Human NAMPT (Homo sapiens, UniProt P43490).
T2 construct: made in house; host or cells: E. coli
The experiment in a line: in vitro NAMPT coupled-enzyme assay (NADH at OD340 nm). The format is biochemical. The note with it: for activation of recombinant NAMPT enzyme: coupled assay NAMPT, NMNAT, ADH; for NAMPT activation: relative reaction rate normalized by the control reaction run prior to compound addition, vehicle 0.98. How it is done: FIGS. 7A-7C. […] (FIG. 7A) P7C3-A20 was incubated at indicated concentrations in a reaction coupled with three enzymes; NAMPT, NMNAT, and ADH (Experimental Procedures). NAMPT activity was recorded for the indicated period of time at OD340 nm by measuring NADH appearance, leading to the indicated concentration-time plot. […] (FIG. 7B) Analysis of the activities of thirty P7C3 analogs was performed to assess their effects on NAMPT enzymatic activity. The reaction rate was calculated as the slope of the concentration-time curve. Relative reaction rate was normalized by the control reaction run prior to compound addition. Data represents the mean of experimental duplicates. Scatter graphs were plotted to compare the ability of compounds to activate NAMPT relative to their ability to compete away P7C3-S326 crosslinking (top scatter plot), ability to protect cells from doxorubicin-mediated toxicity (middle scatter plot), or ability to facilitate NAD restoration in doxorubicin-treated cells (bottom scatter plot). […] Data are expressed as mean±SD of duplicate independent assays.
The enzymatic activity of recombinant NAMPT was monitored in a coupled assay wherein nicotinamide conversion to NMN was followed by sequential production of NAD (via the NMNAT enzyme) and NADH (via alcohol dehydrogenase). To minimize variation, a control reaction was run in each assay prior to compound addition.
Briefly, NAMPT first converted nicotinamide to NMN, which was followed by sequential production of NAD via nicotinamide mononucleotide adenylyl-transferase (NMNAT). NAD was then reduced to NADH by alcohol dehydrogenase (Sigma) using alcohol as the substrate. The resulting NADH was monitored by OD340 nm. […] 10 mM stocks of P7C3 analogs in DMSO were further diluted in ethanol prior to applying to the reaction. To minimize variation, a control reaction was run in each assay prior to compound addition.

The test system of the next data set is U2OS cells. The experiment in a line: doxorubicin toxicity (dox:tox) protection assay, Cell Titer Glo cell survival. It is filed as cell-based. The note with it: cultured U2OS cells. The source says: FIGS. 2A-2D. […] (FIG. 2A) Chemical structure of P7C3-S326. […] (FIG. 2C) Formulas used for calculating doxorubicin toxicity (dox:tox) protection activity. Protection activity is expressed by (Sinf−S0)/AC50 in the twelve-point dose response curve (DRC) corresponding to each compound, wherein both efficacy and potency of compounds were considered. Sinf represents the expected maximal protection. S0 is the baseline. […] In the photo-crosslinking assays, the p70 band intensity was quantified by Image J, and compared the sample of P7C3-S326 alone with that of P7C3-S326 plus competitor. Pearson correlation coefficient (r) and two tailed P value were determined by GraphPad Prism 6 and Spearman Rank Correlation (v1.0.1) software.
FIG. 10. Twelve-point dose response curves (DRC) of all tested compounds in doxorubicin toxicity protection assay. […] Cell viability was determined by Cell Titer Glo assay kit.
Cell survival assay was performed in 96-well plates using CellTiter-Glo Luminescent Cell Viability Assay kit (Promega) that measures cellular ATP content. The CellTiter-Glo reagent was diluted by adding 2 volumes of PBS containing 1% Triton X-100. 50 μl of diluted reagent was directly added to 100 μl of cell culture medium per well. Plates were incubated at room temperature for 10 minutes. Luminescence was recorded by Tecan […]luor Plus reader (Tecan). Cell survival was presented as the percentage of viable cells compared with untreated control, and mean±SD was calculated from duplicates. The dox:tox assay of P7C3 analogs was carried out in the HTS Core (University of Texas Southwestern Medical Center) using the EnVison multimode plate reader (Perkin Elmer).
(In general: Cellular ATP, detected with luciferase, serves as a proxy for viable cell number.)

The source of these data is patent publication US9243281B2, “Neuroprotective chemicals and methods for identifying and using same” (Board of Regents of The University of Texas System, priority 2013, dated 2016).

T1 sequence (P43490 whole entry): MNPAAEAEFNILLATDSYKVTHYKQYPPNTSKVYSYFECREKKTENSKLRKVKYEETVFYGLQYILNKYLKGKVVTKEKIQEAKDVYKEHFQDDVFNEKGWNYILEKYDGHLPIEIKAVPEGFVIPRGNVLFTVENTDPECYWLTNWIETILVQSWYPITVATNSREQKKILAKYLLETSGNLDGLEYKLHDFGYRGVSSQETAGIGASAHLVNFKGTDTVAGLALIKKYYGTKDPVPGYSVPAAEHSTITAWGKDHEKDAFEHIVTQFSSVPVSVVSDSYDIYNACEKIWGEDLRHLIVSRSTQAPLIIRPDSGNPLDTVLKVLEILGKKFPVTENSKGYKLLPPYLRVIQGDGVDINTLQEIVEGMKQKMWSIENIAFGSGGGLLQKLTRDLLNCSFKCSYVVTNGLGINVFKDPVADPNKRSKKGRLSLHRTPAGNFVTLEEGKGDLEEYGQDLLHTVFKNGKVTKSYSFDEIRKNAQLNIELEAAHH
T2 sequence (P43490 whole entry): as above

In the case of `OC(CNc1ccccc1)Cn1c2ccc(Br)cc2c2cc(Br)ccc21` (centres unmarked) [P7C3], the “half-life, volume of distribution and brain penetration” value in [1] was “favorable”. In addition, in [2], the “toxicity on prolonged administration” value is reported as “not overtly toxic to rodents”. The “enhancement in BrdU-positive hippocampal neurons” value in data set [3] (BrdU pulsed one day, then P7C3 for a month) is given as 500%. Further, the “enhanced level of BrdU-positive neurons” value in data set [3] (week-long dose of P7C3) is recorded as “two-fold”. In the data set on aged Fisher rats, the “body weight relative to vehicle-treated controls” value was “maintained body weight” and the cognitive decline entry is listed as “abrogation of cognitive decline”. For the same compound, the Binding competition at p70 (NAMPT) was determined as 2.6. In addition, the “Neurogenesis # BrdU+ Cells (X10E06)/mm3 Dentate Gyrus” value (“Neurogenesis # BrdU+ Cells” below) in data set [4] is given as 15.0 (X10E06)/mm3.

As for `Nc1ccc[n+](CC(O)Cn2c3ccc(Br)cc3c3cc(Br)ccc32)c1` (centres unmarked) [S6], the “rebound of NAD levels (NAD/NADH-Glo kit)” value in data set [5] is “no rebound at all”. The Binding competition on p70 (NAMPT) was found to be 1.4. In data set [4], the “Neurogenesis # BrdU+ Cells” value is recorded as 8.4 (X10E06)/mm3.

For the compound `C#CCN(C)[C@H](C)Cc1ccccc1` [S117, Selegiline, reference compound], in data set [5], the “rebound of NAD levels (NAD/NADH-Glo kit)” value is “no rebound at all”. Also, on p70 (NAMPT), the Binding competition is 1.0. Moreover, the “Neurogenesis # BrdU+ Cells” value in [4] was 8.1 (X10E06)/mm3.

With `COc1cccc(NC[C@H](F)Cn2c3ccc(Br)cc3c3cc(Br)ccc32)n1` [(−)-S243, (S)—N-(3-(3,6-Dibromo-9H-carbazol-9-yl)-2-fluoropropyl)-6-methoxypyridin-2-amine], the “activity in the three in vivo assays of neuroprotection” value in [6] is on record as “active”. On Human NAMPT, the “activation of recombinant NAMPT enzyme” value is given as “more active in stimulating NAMPT than the racemix mix” and the NAMPT activation is on record as 1.33. Also, the Binding competition on p70 (NAMPT) was 4.8. For the same compound, the “Neurogenesis # BrdU+ Cells” value in data set [4] was 18.1 (X10E06)/mm3. The “protection from doxorubicin-mediated toxicity (dox:tox assay)” value (“protection … (dox:tox assay)” below) with U2OS cells is given as “protective”.

For the compound `COc1cccc(NCC(F)Cn2c3ccc(Br)cc3c3cc(Br)ccc32)n1` (racemic) [S243, N-(3-(3,6-dibromo-9H-carbazol-9-yl)-2-fluoropropyl)-6-methoxypyridin-2-amine], the “rebound of NAD levels (NAD/NADH-Glo kit)” value in data set [5] is reported as “NAD rebound”. In addition, at Human NAMPT, the “activation of recombinant NAMPT enzyme” value is reported as “more active than the (+)P7C3-S243 enantiomer” and the NAMPT activation was 1.26. For the same compound, on p70 (NAMPT), the Binding competition worked out at 2.2.

For the compound `C#CCOc1ccc(C(=O)c2ccc(C(=O)NCC(F)Cn3c4ccc(Br)cc4c4cc(Br)ccc43)cc2)cc1` (centres unmarked) [S326, N-(3-(3,6-dibromo-9H-carbazol-9-yl)-2-fluoropropyl)-4-(4-(prop-2-yn-1-yloxy)benzoyl)benzamide], the NAMPT activation on Human NAMPT was 1.10. In [4] (mouse, in vivo), the “activity in the in vivo neurogenesis assay” value is “active”. The “protection … (dox:tox assay)” value in the data set with U2OS cells is on record as “active”.

`COc1cccc(NC[C@@H](F)Cn2c3ccc(Br)cc3c3cc(Br)ccc32)n1` [(+)-S243]: the “activity in the three in vivo assays of neuroprotection” value in data set [6] is on record as “far less active”. Besides, on Human NAMPT, the NAMPT activation is recorded as 1.13. Also, at p70 (NAMPT), the Binding competition is reported as 4.2. Moreover, the “Neurogenesis # BrdU+ Cells” value in data set [4] was 10.0 (X10E06)/mm3. In the data set with U2OS cells, the “protection … (dox:tox assay)” value is “considerably less active”.

Regarding `COc1cccc(N2CC(Cn3c4ccc(Br)cc4c4cc(Br)ccc43)OC2=O)c1` (centres unmarked) [S12], at Human NAMPT, the NAMPT activation turned out to be 1.24. In addition, at p70 (NAMPT), the Binding competition was found to be 2.4. The “Neurogenesis # BrdU+ Cells” value in [4] was 10.8 (X10E06)/mm3.

Take `FC(F)(COc1ccccc1)Cn1c2ccc(Br)cc2c2cc(Br)ccc21` [S56]: the NAMPT activation at Human NAMPT was 1.06. Further, the Binding competition at p70 (NAMPT) worked out at 1.0. Besides, the “Neurogenesis # BrdU+ Cells” value in data set [4] is given as 8.4 (X10E06)/mm3.

In turn, `COC(=O)NC(=O)Cn1c2ccc(Br)cc2c2cc(Br)ccc21` [S234] gave an NAMPT activation at Human NAMPT of 0.93. In addition, the Binding competition at p70 (NAMPT) is given as 1.0. For the same compound, in [4], the “Neurogenesis # BrdU+ Cells” value is recorded as 17.8 (X10E06)/mm3.

`[N-]=[N+]=NCC(F)Cn1c2ccc(Br)cc2c2cc(Br)ccc21` (centres unmarked) [S189] had an NAMPT activation at Human NAMPT of 1.06. Further, the Binding competition at p70 (NAMPT) stood at 3.6. Further, the “Neurogenesis # BrdU+ Cells” value in data set [4] is reported as 6.9 (X10E06)/mm3.
